These compounds were tested against T1, human PAR4 (Homo sapiens, UniProt Q96RI0) (assay: PAR4 FLIPR assay: antagonism of agonist-peptide-induced calcium mobilization in PAR4-expressing HEK293 cells). Conditions: H-Ala-Phe(4-F)-[…]NH2-induced intracellular calcium mobilization, 11-point curves.
T1 construct: expressed in transfected cells; host or cells: HEK293 PAR4 Clone 1.2A (BMS Arctic ID 383940)
T1 sequence (Q96RI0 18-385): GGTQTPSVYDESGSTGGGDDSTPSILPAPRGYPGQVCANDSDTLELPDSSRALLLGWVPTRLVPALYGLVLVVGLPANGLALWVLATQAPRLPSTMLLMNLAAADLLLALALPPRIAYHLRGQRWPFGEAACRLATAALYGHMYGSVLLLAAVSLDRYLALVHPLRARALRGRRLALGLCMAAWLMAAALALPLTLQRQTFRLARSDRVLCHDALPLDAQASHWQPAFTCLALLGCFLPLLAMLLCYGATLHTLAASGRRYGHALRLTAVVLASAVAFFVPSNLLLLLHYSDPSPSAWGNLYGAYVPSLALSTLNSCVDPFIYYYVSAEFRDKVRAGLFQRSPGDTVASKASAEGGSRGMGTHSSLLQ
Format: cell-based

In order of falling IC50:
1. COc1cnc2c(-c3nc4cc(F)c(OC[C@@H](C)OC(=O)NCCC(N)=O)cc4s3)cc(C)cc2n1 [Example 352, (R)-1-((5-fluoro-2-(2-methoxy-7-methylquinoxalin-5-yl)benzo[d]thiazol-6-yl)oxy)propan-2-yl (3-amino-3-oxopropyl) carbamate]  390 nM
2. COc1cnc2c(-c3nc4c(Cl)c(F)c(OCCOC(N)=O)cc4s3)cc(C)cc2n1 [Example 358, 2-((4-chloro-5-fluoro-2-(2-methoxy-7-methylquinoxalin-5-yl)benzo[d]thiazol-6-yl)oxy) ethyl carbamate]  270 nM
3. COc1cnc2c(-c3nc4c(Cl)c(F)c(OCCOC(=O)Nc5cnc6[nH]ccc6c5)cc4s3)cc(C)cc2n1 [Example 359, 2-((4-chloro-5-fluoro-2-(2-methoxy-7-methylquinoxalin-5-yl)benzo[d]thiazol-6-yl)oxy)ethyl 1H-pyrrolo[2,3-b]pyridin-5-ylcarbamate]  170 nM
4. COc1cnc2c(-c3nc4c(Cl)c(F)c(OCCOC(=O)Nc5ccc6[nH]ccc6c5)cc4s3)cc(C)cc2n1 [Example 360, 2-((4-chloro-5-fluoro-2-(2-methoxy-7-methylquinoxalin-5-yl)benzo[d]thiazol-6-yl)oxy)ethyl 1H-indol-5-ylcarbamate]  160 nM
5. COc1cnc2c(-c3nc4c(Cl)c(F)c(OCCOC(=O)NCC(F)(F)F)cc4s3)cc(C)cc2n1 [Example 334, 2((4-chloro-5-fluoro-2-(2-methoxy-7-methylquinoxalin-5-yl)benzo[d]thiazol-6-yl)oxy)ethyl (2,2,2-trifluoroethyl)carbamate]  29 nM
6. COc1cnc2c(-c3nc4cc(F)c(OC[C@@H](C)OC(=O)Nc5ccnnc5)cc4s3)cc(C)cc2n1 [Example 353, (R)-1-((5-fluoro-2-(2-methoxy-7-methylquinoxalin-5-yl)benzo[d]thiazol-6-yl)oxy)propan-2-yl pyridazin-4-ylcarbamate]  22 nM
7. COc1cnc2c(-c3nc4cc(F)c(OC[C@@H](C)OC(=O)Nc5ccc6[nH]ccc6c5)cc4s3)cc(C)cc2n1 [Example 355, (R)-1-((5-fluoro-2-(2-methoxy-7-methylquinoxalin-5-yl)benzo[d]thiazol-6-yl)oxy)propan-2-yl 1H-indol-5-ylcarbamate]  17 nM
8. COc1ccc(NC(=O)OCCOc2cc3sc(-c4cc(C)cc5nc(OC)cnc45)nc3cc2F)cn1 [Example 341, 2-((5-fluoro-2-(2-methoxy-7-methylquinoxalin-5-yl)benzo[d]thiazol-6-yl)oxy) ethyl (6-methoxypyridin-3-yl)carbamate]  15 nM
9. COc1cnc2c(-c3nc4cc(F)c(OCCOC(=O)Nc5ccncc5)cc4s3)cc(C)cc2n1 [Example 342, 2-((5-fluoro-2-(2-methoxy-7-methylquinoxalin-5-yl)benzo[d]thiazol-6-yl)oxy)ethyl pyridin-4-ylcarbamate]  11 nM
10. COc1cnc2c(-c3nc4cc(F)c(O[C@H](C)COC(=O)Nc5cccnc5)cc4s3)cc(C)cc2n1 [Example 344, (R)-2-((5-fluoro-2-(2-methoxy-7-methylquinoxalin-5-yl)benzo[d]thiazol-6-yl)oxy)propyl pyridin-3-ylcarbamate]  11 nM
11. COc1cnc2c(-c3nc4cc(F)c(OC[C@@H](C)OC(=O)Nc5cnc(C)nc5)cc4s3)cc(C)cc2n1 [Example 357, (R)-1-((5-fluoro-2-(2-methoxy-7-methylquinoxalin-5-yl)benzo[d]thiazol-6-yl)oxy)propan-2-yl (2-methylpyrimidin-5-yl)carbamate]  6.7 nM
12. COc1cnc2c(-c3nc4c(Cl)c(F)c(OCCOC(=O)Nc5ccnc(C)c5)cc4s3)cc(C)cc2n1 [Example 336, 2((4-chloro-5-fluoro-2-(2-methoxy-7-methylquinoxalin-5-yl)benzo[d]thiazol-6-yl)oxy)ethyl (2-methylpyridin-4-yl)carbamate]  5.5 nM
13. COC(=O)c1ccc(NC(=O)OCCOc2cc3sc(-c4cc(C)cc5nc(OC)cnc45)nc3c(Cl)c2F)cn1 [Example 361, methyl 5-(((2-((4-chloro-5-fluoro-2-(2-methoxy-7-methylquinoxalin-5-yl)benzo[d]thiazol-6-yl)oxy)ethoxy)carbonyl)amino)picolinate]  5.5 nM
14. COc1cnc2c(-c3nc4cc(F)c(OC[C@@H](C)OC(=O)Nc5ccc(F)nc5)cc4s3)cc(C)cc2n1 [Example 348, (R)-1-((5-fluoro-2-(2-methoxy-7-methylquinoxalin-5-yl)benzo[d]thiazol-6-yl)oxy)propan-2-yl (6-fluoropyridin-3-yl)carbamate]  4.4 nM
15. COc1cnc2c(-c3nc4cc(F)c(OC[C@H](C)OC(=O)Nc5cccnc5)cc4s3)cc(C)cc2n1 [Example 346, (S)-1-((5-fluoro-2-(2-methoxy-7-methylquinoxalin-5-yl)benzo[d]thiazol-6-yl)oxy)propan-2-ylpyridin-3-ylcarbamate]  3.7 nM
16. COc1cnc2c(-c3nc4cc(F)c(OC[C@@H](C)OC(=O)Nc5ccc6[nH]c(=O)oc6c5)cc4s3)cc(C)cc2n1 [Example 350, (R)-1-((5-fluoro-2-(2-methoxy-7-methylquinoxalin-5-yl)benzo[d]thiazol-6-yl)oxy)propan-2-yl (2-oxo-2,3-dihydrobenzo[d]oxazol-6-yl)carbamate]  2.8 nM
17. COc1cnc2c(-c3nc4cc(F)c(OC[C@@H](C)OC(=O)Nc5ccncc5)cc4s3)cc(C)cc2n1 [Example 349, (R)-1-((5-fluoro-2-(2-methoxy-7-methylquinoxalin-5-yl)benzo[d]thiazol-6-yl)oxy)propan-2-yl pyridin-4-ylcarbamate]  2.7 nM
18. COc1cnc2c(-c3nc4cc(F)c(OC[C@@H](C)OC(=O)Nc5ccc(C#N)nc5)cc4s3)cc(C)cc2n1 [Example 351, (R)-1-((5-fluoro-2-(2-methoxy-7-methylquinoxalin-5-yl)benzo[d]thiazol-6-yl)oxy) propan-2-yl (6-cyanopyridin-3-yl)carbamate]  2.7 nM
19. COc1cnc2c(-c3nc4c(Cl)c(F)c(OCCOC(=O)Nc5ccncc5)cc4s3)cc(C)cc2n1 [Example 335, 2((4-chloro-5-fluoro-2-(2-methoxy-7-methylquinoxalin-5-yl)benzo[d]thiazol-6-yl)oxy)ethyl pyridin-4-ylcarbamate]  2.5 nM
20. COc1cnc2c(-c3nc4cc(F)c(OC[C@@H](C)OC(=O)Nc5ccc6c(ccn6C)c5)cc4s3)cc(C)cc2n1 [Example 356, (R)-1-((5-fluoro-2-(2-methoxy-7-methylquinoxalin-5-yl)benzo[d]thiazol-6-yl)oxy)propan-2-yl (1-methyl-1H-indol-5-yl)carbamate]  2.1 nM
21. COc1cnc2c(-c3nc4c(Cl)c(F)c(OCCOC(=O)Nc5ccc(-n6cnc(C)n6)nc5)cc4s3)cc(C)cc2n1 [Example 338, 2((4-chloro-5-fluoro-2-(2-methoxy-7-methylquinoxalin-5-yl)benzo[d]thiazol-6-yl)oxy)ethyl (6-(3-methyl-1H-1,2,4-triazol-1-yl)pyridin-3-yl)carbamate]  2 nM
22. COc1cnc2c(-c3nc4c(Cl)c(F)c(OCCOC(=O)Nc5ccc6[nH]c(=O)oc6c5)cc4s3)cc(C)cc2n1 [Example 333, 2((4-chloro-5-fluoro-2-(2-methoxy-7-methylquinoxalin-5-yl)benzo[d]thiazol-6-yl)oxy)ethyl (2-oxo-2,3-dihydrobenzo[d]oxazol-6-yl)carbamate]  1.7 nM
23. COc1cnc2c(-c3nc4cc(F)c(OCCOC(=O)Nc5cccnc5)cc4s3)cc(C)cc2n1 [Example 339, 2-((5-fluoro-2-(2-methoxy-7-methylquinoxalin-5-yl)benzo[d]thiazol-6-yl)oxy)ethyl pyridin-3-ylcarbamate]  1.6 nM
24. COc1cnc2c(-c3nc4cc(F)c(OCCOC(=O)Nc5ccc(F)nc5)cc4s3)cc(C)cc2n1 [Example 340, 2-((5-fluoro-2-(2-methoxy-7-methylquinoxalin-5-yl)benzo[d]thiazol-6-yl)oxy)ethyl (6-fluoropyridin-3-yl)carbamate]  1.5 nM
25. COc1cnc2c(-c3nc4cc(F)c(OC[C@@H](C)OC(=O)Nc5cnc6[nH]ccc6c5)cc4s3)cc(C)cc2n1 [Example 354, (R)-1-((5-fluoro-2-(2-methoxy-7-methylquinoxalin-5-yl)benzo[d]thiazol-6-yl)oxy)propan-2-yl 1H-pyrrolo[2,3-b]pyridin-5-ylcarbamate]  1.2 nM
26. COc1cnc2c(-c3nc4cc(F)c(OC[C@@H](C)OC(=O)Nc5cccnc5)cc4s3)cc(C)cc2n1 [Example 347, (R)-1-((5-fluoro-2-(2-methoxy-7-methylquinoxalin-5-yl)benzo[d]thiazol-6-yl)oxy)propan-2-yl pyridin-3-ylcarbamate]  0.8 nM
27. COc1cnc2c(-c3nc4c(Cl)c(F)c(OCCOC(=O)Nc5cncc(F)c5)cc4s3)cc(C)cc2n1 [Example 337, 2((4-chloro-5-fluoro-2-(2-methoxy-7-methylquinoxalin-5-yl)benzo[d]thiazol-6-yl)oxy)ethyl (5-fluoropyridin-3-yl)carbamate]  0.7 nM
28. COc1cnc2c(-c3nc4cc(F)c(OCCOC(=O)Nc5ccc6[nH]c(=O)oc6c5)cc4s3)cc(C)cc2n1 [Example 343, 2-((5-fluoro-2-(2-methoxy-7-methylquinoxalin-5-yl)benzo[d]thiazol-6-yl)oxy)ethyl (2-oxo-2,3-dihydrobenzo[d]oxazol-6-yl)carbamate]  0.7 nM
29. COc1cnc2c(-c3nc4cc(F)c(O[C@@H](C)COC(=O)Nc5cccnc5)cc4s3)cc(C)cc2n1 [Example 345, (S)-2-((5-fluoro-2-(2-methoxy-7-methylquinoxalin-5-yl)benzo[d]thiazol-6-yl)oxy)propyl pyridin-3-ylcarbamate]  0.6 nM

Source: patent publication US12060347B2 (BRISTOL-MYERS SQUIBB COMPANY, priority 2016, dated 2024)
